Among the data in US20250179078A1, “INHIBITORS OF NLRP3” (PTC THERAPEUTICS, INC., priority 2022, published 2025) are IC50 values, retold here.

T1 sequence (Q96P20 whole entry): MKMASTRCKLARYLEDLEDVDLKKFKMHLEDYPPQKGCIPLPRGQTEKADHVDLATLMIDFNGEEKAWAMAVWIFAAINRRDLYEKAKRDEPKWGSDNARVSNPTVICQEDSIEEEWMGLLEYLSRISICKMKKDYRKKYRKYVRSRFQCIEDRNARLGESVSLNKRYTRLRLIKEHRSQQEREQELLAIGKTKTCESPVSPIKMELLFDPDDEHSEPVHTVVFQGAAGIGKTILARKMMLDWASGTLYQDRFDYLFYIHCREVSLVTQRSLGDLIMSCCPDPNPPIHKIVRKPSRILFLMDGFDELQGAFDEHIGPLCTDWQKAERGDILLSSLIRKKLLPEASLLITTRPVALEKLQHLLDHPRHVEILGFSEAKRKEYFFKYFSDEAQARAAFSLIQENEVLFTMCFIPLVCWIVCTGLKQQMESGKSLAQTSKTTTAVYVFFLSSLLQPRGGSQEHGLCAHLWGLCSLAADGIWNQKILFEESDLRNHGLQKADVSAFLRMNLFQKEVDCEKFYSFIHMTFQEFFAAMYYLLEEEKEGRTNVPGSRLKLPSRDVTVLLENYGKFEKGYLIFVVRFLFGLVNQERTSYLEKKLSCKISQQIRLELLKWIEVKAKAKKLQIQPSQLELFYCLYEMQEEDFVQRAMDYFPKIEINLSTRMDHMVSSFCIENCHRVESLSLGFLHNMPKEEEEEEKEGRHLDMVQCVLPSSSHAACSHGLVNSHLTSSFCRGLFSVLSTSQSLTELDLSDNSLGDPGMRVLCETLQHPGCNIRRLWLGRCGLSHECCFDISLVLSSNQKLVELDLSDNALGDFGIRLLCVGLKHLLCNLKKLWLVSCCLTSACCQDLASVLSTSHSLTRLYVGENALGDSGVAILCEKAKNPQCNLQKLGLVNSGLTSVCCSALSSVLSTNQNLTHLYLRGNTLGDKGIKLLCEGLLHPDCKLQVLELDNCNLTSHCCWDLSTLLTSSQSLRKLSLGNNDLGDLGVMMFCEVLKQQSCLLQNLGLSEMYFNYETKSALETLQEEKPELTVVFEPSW

This assay concerns the target T1, NLRP3 (Homo sapiens, UniProt Q96P20).
T1 construct: host or cells: THP-1 cells differentiated with PMA
Kind of assay: IL-1β Secretion Assay (NLRP3-dependent IL1β secretion in THP1 cells). Format: cell-based. The conditions noted are these: PMA-differentiated THP-1 cells; compounds incubated 20 h; 2.5 μM Nigericin 3 h; HTRF IL-1β readout; read-out: IC50 IL-1β Inhibition. The procedure, abridged:
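IL-1β in conditioned media, measured by HTRF after 3 h 2.5 μM nigericin stimulation, gave % inhibition fitted logistically for IC50. Before that, PMA-differentiated (100 ng/mL, 24 h) THP-1 cells were preincubated 20 h with 7 compound concentrations (3-fold serial, DMSO 1:200).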
On the technique in general: Time-resolved FRET reads energy transfer from a long-lived donor to a nearby acceptor.
The term IC50 denotes the concentration that gives 50% inhibition. Consider `CCN1CCC[C@@H](Nc2nnc(-c3ccc(OC)cc3Cl)c3c(F)ccn23)C1` [Compound 82, 1-(2-chloro-4-methoxyphenyl)-N-[(3R)-1-ethylpiperidin-3-yl]-8-fluoropyrrolo[1,2-d][1,2,4]triazin-4-amine], for which the half-inhibitory concentration (IC50) lay within 1 to 10 nM.

As for `Cc1cc2c(-c3ccc(C(F)(F)F)cc3OC(F)F)nnc(N[C@@H]3CCCC[C@H]3O)n2n1` [Compound 381, (1R,2R)-2-({4-[2-(difluoromethoxy)-4-(trifluoromethyl)phenyl]-2-methylpyrazolo[1,5-d][1,2,4]triazin-7-yl}amino)cyclohexan-1-ol], the IC50 lay within 10 to 100 nM.

Regarding `O[C@@H]1CCCC[C@H](Nc2nnc(-c3ccc(C(F)(F)F)cc3CC(F)(F)F)c3cccn23)C1.O[C@H]1CCCC[C@@H](Nc2nnc(-c3ccc(C(F)(F)F)cc3CC(F)(F)F)c3cccn23)C1` [Compound 128, (1S,3R)-3-({1-[2-(2,2,2-trifluoroethyl)-4-(trifluoromethyl)phenyl]pyrrolo[1,2-d][1,2,4]triazin-4-yl}amino)cycloheptan-1-ol AND (1R,3S)-3-({1-[2-(2,2,2-trifluoroethyl)-4-(trifluoromethyl)phenyl]pyrrolo[1,2-d][1,2,4]triazin-4-yl}amino)cycloheptan-1-ol], the IC50 was in the range of 1 to 10 nM.

In the case of `COc1ccc(-c2nnc(N[C@@H]3CCCN(CCO)C3)n3ccc(F)c23)c(C(F)(F)F)c1` [Compound 18, 2-[(3R)-3-({8-fluoro-1-[4-methoxy-2-(trifluoromethyl)phenyl]pyrrolo[1,2-d][1,2,4]triazin-4-yl}amino)piperidin-1-yl]ethan-1-ol], the IC50 was in the range of 1 to 10 nM.

With `Cc1cc2c(-c3ccc(C(F)(F)F)cc3OC(F)(F)F)nnc(N[C@@H]3CCCC[C@H]3O)n2n1` [Compound 382, (1R,2R)-2-({2-methyl-4-[2-(trifluoromethoxy)-4-(trifluoromethyl)phenyl]pyrazolo[1,5-d][1,2,4]triazin-7-yl}amino)cyclohexan-1-ol], the IC50 fell in the range of 10 to 100 nM. Consider `COc1ccc(-c2nnc(N[C@@H]3CCCC[C@H]3O)n3nc(C)cc23)c(OC(F)(F)F)c1` [Compound 392, (1R,2R)-2-({4-[4-methoxy-2-(trifluoromethoxy)phenyl]-2-methylpyrazolo[1,5-d][1,2,4]triazin-7-yl}amino)cyclohexan-1-ol], for which the IC50 fell in the range of 10 to 100 nM. In the case of `Cc1ccc(-c2nnc(N[C@@H]3CCCC[C@H]3O)n3cncc23)c(CC(F)(F)F)c1` [Compound 286, (1R,2R)-2-({1-[4-methyl-2-(2,2,2-trifluoroethyl)phenyl]imidazo[1,5-d][1,2,4]triazin-4-yl}amino)cyclohexan-1-ol], the IC50 fell in the range of 1 to 10 nM. For `O[C@@H]1CCCC[C@H]1Nc1nnc(-c2ccc(C(F)(F)F)cc2CC(F)(F)F)c2cncn12` [Compound 282, (1R,2R)-2-({1-[2-(2,2,2-trifluoroethyl)-4-(trifluoromethyl)phenyl]imidazo[1,5-d][1,2,4]triazin-4-yl}amino)cyclohexan-1-ol], the 50% inhibitory concentration (IC50) was below 1 nM. Take `O[C@H]1CCC[C@@H](Nc2nnc(-c3ccc(C(F)(F)F)cc3C(F)(F)F)c3cncn23)C1` [Compound 215, (1S,3R)-3-({1-[2,4-bis(trifluoromethyl)phenyl]imidazo[1,5-d][1,2,4]triazin-4-yl}amino)cyclohexan-1-ol]: the IC50 lay within 10 to 100 nM. With `COc1ccc(-c2nnc(N[C@@H]3CCCN(CCO)C3)n3ccc(F)c23)c(OC(F)F)c1` [Compound 57, 2-[(3R)-3-({1-[2-(difluoromethoxy)-4-methoxyphenyl]-8-fluoropyrrolo[1,2-d][1,2,4]triazin-4-yl}amino)piperidin-1-yl]ethan-1-ol], the IC50 was in the range of 10 to 100 nM. Consider `Cc1ccc(-c2nnc(N[C@H]3C[C@@](C)(O)C3)n3cncc23)c(OC(F)F)c1` [Compound 344, (1s,3s)-3-({1-[2-(difluoromethoxy)-4-methylphenyl]imidazo[1,5-d][1,2,4]triazin-4-yl}amino)-1-methylcyclobutan-1-ol], for which the IC50 lay within 10 to 100 nM. The result for `COc1ccc(-c2nnc(NC[C@H]3CCCO3)n3cccc23)c(OC(F)(F)F)c1` [Compound 73, 1-[4-methoxy-2-(trifluoromethoxy)phenyl]-N-{[(2R)-oxolan-2-yl]methyl}pyrrolo[1,2-d][1,2,4]triazin-4-amine] reads 10 to 100 nM. For `CCN1CC[C@H](O)[C@@H](Nc2nnc(-c3ccc(C(F)(F)F)cc3OC(F)F)c3cccn23)C1` [Compound 46, (3S,4S)-3-({1-[2-(difluoromethoxy)-4-(trifluoromethyl)phenyl]pyrrolo[1,2-d][1,2,4]triazin-4-yl}amino)-1-ethylpiperidin-4-ol], the half-maximal inhibitory concentration (IC50) lay in the range of 10 to 100 nM.

With `COc1ccc(-c2nnc(NC[C@H](C)O)n3cccc23)c(OC(F)(F)F)c1` [Compound 65, (2S)-1-({1-[4-methoxy-2-(trifluoromethoxy)phenyl]pyrrolo[1,2-d][1,2,4]triazin-4-yl}amino)propan-2-ol], the IC50 is 10 to 100 nM. The result for `Cc1cc2c(-c3ccc(C(F)(F)F)cc3CC(F)(F)F)nnc(N[C@H]3C[C@@](C)(O)C3)n2n1` [Compound 388, (1s,3s)-1-methyl-3-({2-methyl-4-[2-(2,2,2-trifluoroethyl)-4-(trifluoromethyl)phenyl]pyrazolo[1,5-d][1,2,4]triazin-7-yl}amino)cyclobutan-1-ol] reads 1 to 10 nM. `COc1ccc(-c2nnc(NC3CC(C(C)(C)O)C3)n3cncc23)c(CC(F)(F)F)c1` (stereo not shown) [Compound 327, 2-[3-({1-[4-methoxy-2-(2,2,2-trifluoroethyl)phenyl]imidazo[1,5-d][1,2,4]triazin-4-yl}amino)cyclobutyl]propan-2-ol]: the IC50 lay in the range of 10 to 100 nM.

Turning to `COc1ccc(-c2nnc(N[C@@H]3CCCN(C)C3)n3cncc23)c(CC(F)(F)F)c1` [Compound 250, 1-[4-methoxy-2-(2,2,2-trifluoroethyl)phenyl]-N-[(3R)-1-methylpiperidin-3-yl]imidazo[1,5-d][1,2,4]triazin-4-amine], the IC50 was below 1 nM. As for `CN1CCC[C@@H](Nc2nnc(-c3ccc(C4CC4)cc3OC(F)(F)F)c3cccn23)C1` [Compound 37, 1-[4-cyclopropyl-2-(trifluoromethoxy)phenyl]-N-[(3R)-1-methylpiperidin-3-yl]pyrrolo[1,2-d][1,2,4]triazin-4-amine], the IC50 was below 1 nM. Take `Cc1cc2c(-c3ccc(Cl)cc3C(F)F)nnc(N[C@@H]3CCCN(C)C3)n2n1` [Compound 362, 4-[4-chloro-2-(difluoromethyl)phenyl]-2-methyl-N-[(3R)-1-methylpiperidin-3-yl]pyrazolo[1,5-d][1,2,4]triazin-7-amine]: the half-inhibitory concentration (IC50) is 10 to 100 nM. The result for `COc1ccc(-c2nnc(N[C@@H]3CCCC[C@H]3O)n3cncc23)c(OC(F)F)c1` [Compound 270, (1R,2R)-2-({1-[2-(difluoromethoxy)-4-methoxyphenyl]imidazo[1,5-d][1,2,4]triazin-4-yl}amino)cyclohexan-1-ol] reads 1 to 10 nM; that for `COc1ccc(-c2nnc(NCc3nncn3C)n3cccc23)c(OC(F)(F)F)c1` [Compound 92, 1-[4-methoxy-2-(trifluoromethoxy)phenyl]-N-[(4-methyl-4H-1,2,4-triazol-3-yl)methyl]pyrrolo[1,2-d][1,2,4]triazin-4-amine], 100 to 300 nM.

As for `COc1ccc(-c2nnc(N[C@H]3CCCC[C@]3(C)O)n3cncc23)c(OC(F)(F)F)c1` (single isomer, unassigned) [Compound 310], the half-inhibitory concentration (IC50) is at least 300 nM.
